From patent US20250019379A1, “NEW CRYSTAL FORM OF COMPOUND, AND PREPARATION METHOD THEREFOR AND USE THEREOF” (E-nitiate Biopharmaceuticals (Hangzhou) Co., Ltd, priority 2021, published 2025)
Where “and” joins values, the source holds several entries; their conditions need not be identical. Identical values can stand only once. Marks after values point to notes of the source that are not given here.

How the values were obtained:
[1] = Hygroscopicity experiment; format: physicochemical; conditions: Chinese Pharmacopoeia 2020, General Chapter 9103
Method: The hygroscopicity data of the samples were collected using the ADVENTURE series dynamic gas phase adsorption instrument under N2 protection. The sample dosage is about 30 mg.
The hygroscopicity of the above crystalline form was determined with reference to the 2020 edition of the Chinese Pharmacopoeia, General Chapter 9103, Guidelines for Drug Hygroscopicity Tests.

psoriasis animal model = assay: Psoriasis animal model (imiquimod cream induced); format: in vivo, C57/BL 6J mice; conditions: for Inhibition rate of skin thickening: 7th day of treatment
Description: C57/BL 6J mice, 75, female, 7-8 weeks old, weight 18 g-20 g. The animals were from Zhejiang Weitong Lihua Experimental Animal Technology Co., Ltd. (SCXK (Zhejiang) 2019-0001), experimental animal production certificate number 20210107Abzz0619000247; experimental animal use license number: SYXK (Shanghai) 2020-0001 (Via Biotechnology (Shanghai Co., Ltd).
Modeling and administration method: Use depilatory cream to remove hair from an area of about 2 cm×3 cm on the back of each animal. Control the application time of depilatory cream within 2 minutes. Wash the depilated area with warm water, wash off the depilatory agent, and use immediately. Dry the animal's hair with a hair dryer, and place the animal on a constant-temperature electric blanket at 37° C. for 1 h-2 h. After the animal moves freely, it is placed in a cage for normal rearing and recovery for 1 day (if any animal has red, swollen and damaged skin after hair removal, remove it). On the second day, 54 animals with normal skin were selected and randomly grouped according to body weight, with 9 animals in each group, a total of 6 groups. Each animal in the G2-G6 group was evenly applied with 60 mg (60 μL) of 5 wt % imiquimod cream (Aldara) on the back every day for seven consecutive days.
Skin thickness (double-layer): Use a vernier caliper to measure the double-layer thickness of the back skin before drug administration and modeling, and on days 1, 3, 5, and 7 after drug administration.
PASI score: The condition score refers to the clinical PASI scoring standard, and scores three indicators: erythema, scale, and thickness. The total score is 12 points. The scoring standards are as follows:
Erythema: 0 points, none; 1 points, slight: light red; 2 points, moderate: red; 3 points, significant: dark red; 4 points, very obvious: extremely deep red.
Scaling: 0 points, none; 1 point, slight: there are scales on part of the epidermis, mainly fine scales; 2 points, moderate: most of the skin surface is completely or incompletely covered with scales, in a flaky form; 3 points, Significant: almost all skin is covered with scales, and the scales are thick and layered; 4 points, very obvious: all the skin is covered with scales, and the scales are thick and layered.
Plaque thickening degree: 0 points, none: flush with normal skin; 1 points, slight: slightly higher than the skin surface: 2 points, moderate: moderately raised, with round or sloped plaque edges; 3 points, obvious Score: The plaque is hypertrophic and the bulge is obvious; 4 points, very significant: it is highly thickened and the bulge is very obvious.
Skin proliferation inhibition rate (%)=1−[(skin thickness of the treatment group on the 7th day−skin thickness of the blank control group on the 7th day)/skin thickness of the negative control group on the 7th day−skin thickness of the blank control group on the 7th day)]%.
All data are expressed as Mean t SEM. The statistical analysis software SPSS23.0 was used to conduct normal distribution and homogeneity of variance tests on the data. Based on the results, the single-factor analysis of variance method was selected and the homogeneity of variance test was selected based on the results. *P<0.05 will be considered a statistically significant difference.

[2] = 0.5 mg/kg oral twice a day, Day 0
[3] = 0.5 mg/kg oral twice a day, Day 1
[4] = 0.5 mg/kg oral twice a day, Day 3
[5] = 0.5 mg/kg oral twice a day, Day 5
[6] = 0.5 mg/kg oral twice a day, Day 7
[7] = 1.5 mg/kg oral twice a day, Day 0
[8] = 1.5 mg/kg oral twice a day, Day 1
[9] = 1.5 mg/kg oral twice a day, Day 3
[10] = 1.5 mg/kg oral twice a day, Day 5
[11] = 1.5 mg/kg oral twice a day, Day 7
[12] = 1.5 mg/kg oral twice a day, Day 7, listed as crystalline form A
[13] = 5 mg/kg oral twice a day, Day 0
[14] = 5 mg/kg oral twice a day, Day 1
[15] = 5 mg/kg oral twice a day, Day 3
[16] = 5 mg/kg oral twice a day, Day 5
[17] = 5 mg/kg oral twice a day, Day 7
[18] = 5 mg/kg oral twice a day, Day 7, listed as crystalline form A

C[C@@H](O)c1nc2cnc3[nH]ccc3c2n1N1CCC(CC#N)CC1 [Crystalline form A, (R)-2-(1-(2-(1-hydroxyethyl)imidazo[4,5-d]pyrrolo[2,3-b]pyridine-1(6H)-yl)piperidin-4-yl)acetonitrile]
hygroscopicity class [1]: no or almost no hygroscopicity
weight gain (hygroscopicity) [1]: 0.05%
Inhibition rate of skin thickening (psoriasis animal model; 0.5 mg/kg oral twice a day): 34.6%
Average skin thickness (double layer) (psoriasis animal model; [2]): 0.50 ± 0.01 mm
PASI score (psoriasis animal model; [2]): 0.0 points
Average skin thickness (double layer) (psoriasis animal model; [3]): 0.60 ± 0.01 mm
PASI score (psoriasis animal model; [3]): 0.0 points
Average skin thickness (double layer) (psoriasis animal model; [4]): 1.57 ± 0.11 mm
PASI score (psoriasis animal model; [4]): 6.6 ± 0.69 points
Average skin thickness (double layer) (psoriasis animal model; [5]): 1.27 ± 0.1*** mm
PASI score (psoriasis animal model; [5]): 5.9 ± 0.79** points
Average skin thickness (double layer) (psoriasis animal model; [6]): 1.32 ± 0.09 mm and 1.32 mm
PASI score (psoriasis animal model; [6]): 6.1 ± 0.56*** points
PASI score (psoriasis animal model; 0.5 mg/kg oral twice a day, Day 7, listed as crystalline form A): 6.1 points
Inhibition rate of skin thickening (psoriasis animal model; 1.5 mg/kg oral twice a day): 56.4%
Inhibition rate of skin thickening (psoriasis animal model; 1.5 mg/kg oral twice a day, listed as crystalline form A): 56.4%
Average skin thickness (double layer) (psoriasis animal model; [7]): 0.50 ± 0.01 mm
PASI score (psoriasis animal model; [7]): 0.0 points
Average skin thickness (double layer) (psoriasis animal model; [8]): 0.61 ± 0.02 mm
PASI score (psoriasis animal model; [8]): 0.0 points
Average skin thickness (double layer) (psoriasis animal model; [9]): 1.76 ± 0.15 mm
PASI score (psoriasis animal model; [9]): 6.1 ± 0.56 points
Average skin thickness (double layer) (psoriasis animal model; [10]): 1.53 ± 0.08** mm
PASI score (psoriasis animal model; [10]): 7.0 ± 0.53 points
Average skin thickness (double layer) (psoriasis animal model; [11]): 1.15 ± 0.04** mm and 1.15 mm
PASI score (psoriasis animal model; [11]): 4.9 ± 0.39*** points
Average skin thickness (double layer) (psoriasis animal model; [12]): 1.15 mm
PASI score (psoriasis animal model; [12]): 4.9 points
Inhibition rate of skin thickening (psoriasis animal model; 5 mg/kg oral twice a day): 71.8%
Inhibition rate of skin thickening (psoriasis animal model; 5 mg/kg oral twice a day, listed as crystalline form A): 71.8%
Average skin thickness (double layer) (psoriasis animal model; [13]): 0.50 ± 0.01 mm
PASI score (psoriasis animal model; [13]): 0.0 points
Average skin thickness (double layer) (psoriasis animal model; [14]): 0.64 ± 0.01 mm
PASI score (psoriasis animal model; [14]): 0.0 points
Average skin thickness (double layer) (psoriasis animal model; [15]): 1.35 ± 0.10* mm
PASI score (psoriasis animal model; [15]): 4.9 ± 0.48 points
Average skin thickness (double layer) (psoriasis animal model; [16]): 1.24 ± 0.11*** mm
PASI score (psoriasis animal model; [16]): 4.7 ± 0.58*** points
Average skin thickness (double layer) (psoriasis animal model; [17]): 1.03 ± 0.03*** mm and 1.03 mm
PASI score (psoriasis animal model; [17]): 3.6 ± 0.44*** points
Average skin thickness (double layer) (psoriasis animal model; [18]): 1.03 mm
PASI score (psoriasis animal model; [18]): 3.6 points
